These molecules were tested against Cathepsin B (Homo sapiens, UniProt P07858) (assay: In vitro inhibitory activity against Cathepsin B).

Structure (SMILES)	IC50 [µM]
NC(=O)c1cn(-c2ccc(O)cc2Cl)c2cc(-c3ccncc3)ccc2c1=O	25
NC(=O)c1cn(-c2ccc(O)cc2)c2cc(-c3ccncc3)ccc2c1=O	32

These molecules were tested against T1, Calpain-1 catalytic subunit (Homo sapiens, UniProt P07384) (assay: In vitro inhibitory activity against human erythrocyte Calpain 1).
T1 sequence (P07384 whole entry): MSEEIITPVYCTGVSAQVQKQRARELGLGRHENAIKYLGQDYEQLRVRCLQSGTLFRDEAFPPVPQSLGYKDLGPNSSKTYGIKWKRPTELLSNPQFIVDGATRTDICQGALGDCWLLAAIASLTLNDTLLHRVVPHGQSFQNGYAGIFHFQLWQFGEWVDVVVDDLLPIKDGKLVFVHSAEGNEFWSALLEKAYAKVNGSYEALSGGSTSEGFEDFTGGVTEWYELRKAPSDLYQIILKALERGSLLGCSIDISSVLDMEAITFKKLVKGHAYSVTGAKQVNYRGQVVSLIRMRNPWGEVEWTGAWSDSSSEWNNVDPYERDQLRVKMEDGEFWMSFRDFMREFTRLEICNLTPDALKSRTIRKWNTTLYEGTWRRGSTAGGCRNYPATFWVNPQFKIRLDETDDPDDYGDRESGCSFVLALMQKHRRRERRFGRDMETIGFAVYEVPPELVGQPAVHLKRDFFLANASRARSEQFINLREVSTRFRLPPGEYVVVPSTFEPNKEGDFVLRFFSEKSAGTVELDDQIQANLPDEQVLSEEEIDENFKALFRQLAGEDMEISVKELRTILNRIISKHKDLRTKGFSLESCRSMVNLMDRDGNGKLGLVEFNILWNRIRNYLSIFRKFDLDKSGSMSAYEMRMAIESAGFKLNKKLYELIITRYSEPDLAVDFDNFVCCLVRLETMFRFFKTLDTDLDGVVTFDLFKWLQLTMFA

Structure (SMILES)	IC50 [nM]
NC(=O)c1cn(-c2ccc(O)cc2Cl)c2cc(-c3ccoc3)ccc2c1=O	2000
NC(=O)c1cn(-c2ccc(O)cc2Cl)c2cc(-c3ccnc(F)c3)ccc2c1=O	30000
NC(=O)c1cn(-c2ccc(O)cc2F)c2cc(-c3ccncc3)ccc2c1=O	7000
Cc1cc(O)ccc1-n1cc(C(N)=O)c(=O)c2ccc(-c3ccncc3)cc21	500
NC(=O)c1cn(-c2ccc(O)cc2Cl)c2cc(-c3cccnn3)ccc2c1=O	2000
NC(=O)c1cn(-c2ccc(O)cc2Cl)c2cc(-c3ccccn3)ccc2c1=O	30000

Continued, values first:

IC50 [nM]	Structure (SMILES)
20000	O=C(O)c1cn(-c2ccc(O)cc2)c2cc(-c3ccncc3)ccc2c1=O
500	NC(=O)c1cn(-c2ccc(O)cc2Cl)c2cc(-c3ccncc3)ccc2c1=O
10000	NC(=O)c1cn(-c2ccc(O)cc2Cl)c2cc(-c3cccnc3)ccc2c1=O
20000	NC(=O)c1cn(-c2ccc(O)cc2C(F)(F)F)c2cc(-c3ccncc3)ccc2c1=O
600	NC(=O)c1cn(-c2ccc(O)cc2Cl)c2cc(-n3cccn3)ccc2c1=O
300	CC(=O)N[C@@H](CC(C)C)C(=O)N[C@@H](CC(C)C)C(=O)N[C@H](C=O)CCCNC(=N)N [LEUPEPTIN]
2000	NC(=O)c1cn(-c2ccc(O)cc2Cl)c2cc(-c3ccncc3Cl)ccc2c1=O

The molecules below were run against Procathepsin L (Homo sapiens, UniProt P07711) (assay: In vitro inhibitory activity against cathepsin L).
Sequence of Procathepsin L (P07711 whole entry): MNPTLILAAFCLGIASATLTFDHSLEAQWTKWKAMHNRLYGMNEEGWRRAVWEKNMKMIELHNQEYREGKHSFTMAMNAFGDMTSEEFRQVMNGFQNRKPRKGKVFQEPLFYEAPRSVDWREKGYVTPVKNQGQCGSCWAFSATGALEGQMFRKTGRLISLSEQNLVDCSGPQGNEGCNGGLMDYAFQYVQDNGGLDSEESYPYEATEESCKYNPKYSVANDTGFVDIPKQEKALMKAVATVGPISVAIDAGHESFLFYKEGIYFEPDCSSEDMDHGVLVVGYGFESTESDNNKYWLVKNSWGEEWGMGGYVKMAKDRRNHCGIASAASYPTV

Structure (SMILES)	IC50 [µM]
NC(=O)c1cn(-c2ccc(O)cc2Cl)c2cc(-c3ccncc3)ccc2c1=O	22
NC(=O)c1cn(-c2ccc(O)cc2)c2cc(-c3ccncc3)ccc2c1=O	37

Each molecule was assayed against T2, Calpain-1 catalytic subunit (Homo sapiens) (UniProt P07384) (assay: In vitro inhibitory activity against human erythrocyte Calpain 1 at a concentration of 50 uM).
T2 sequence (whole entry): T1 sequence (P07384 whole entry)

Structure (SMILES)	inhibition [%]
O=C(NO)c1cn(-c2ccc(O)cc2)c2cc(-c3ccncc3)ccc2c1=O	< 10
NC(=O)c1cn(-c2ccc(O)cc2)c2cc(-c3ccccc3)ccc2c1=O	< 10
CNC(=O)c1cn(-c2ccc(O)cc2)c2cc(-c3ccncc3)ccc2c1=O	< 10
Cc1cc(-n2cc(C(N)=O)c(=O)c3ccc(-c4ccncc4)cc32)cc(C)c1O	< 10
O=C(NCCO)c1cn(-c2ccc(O)cc2)c2cc(-c3ccncc3)ccc2c1=O	< 10

Next, values leading:

inhibition [%]	Structure (SMILES)
< 10	NC(=O)c1cn(-c2ccc(O)cc2)c2ccccc2c1=O
< 10	Cc1cncc(C)c1-c1ccc2c(=O)c(C(N)=O)cn(-c3ccc(O)cc3Cl)c2c1
< 10	CN(C)C(=O)c1cn(-c2ccc(O)cc2)c2cc(-c3ccncc3)ccc2c1=O

Source: ChEMBL document CHEMBL1153663, “Inhibition of human erythrocyte calpain I by novel quinolinecarboxamides” (Bioorg Med Chem Lett, 1995)
